# Values of other authors as cited in patent US11382851B2, “Hair dye composition containing at least one organic silicon compound, a direct dye and a film forming hydrophobic polymer” (Henkel AG & Co. KGaA, priority 2018, dated 2022).
# Details: about 25° C.
solubility in water (in words),Compound,solubility in water
–,CCN(Cc1cccc(S(=O)(=O)[O-])c1)c1ccc(C(=C2C=CC(=[N+](CC)Cc3cccc(S(=O)(=O)[O-])c3)C=C2)c2ccccc2S(=O)(=O)[O-])cc1.[Na+].[Na+] [Acid Blue 9],more than 20 % by weight
–,"O=S(=O)([O-])c1ccc(N=Nc2c(O)ccc3ccccc23)cc1.[Na+] [Acid Orange 7, sodium salt of 4-[(2-hydroxy-1-naphthyl)azo]benzene sulphonate]",more than 7 g/L
–,"Nc1cc(S(=O)(=O)[O-])cc2cc(S(=O)(=O)[O-])c(N=Nc3ccccc3)c(O)c12.[Na+].[Na+] [Acid Red 33, disodium salt of 5-amino-4-hydroxy-3-(phenylazo)-naphthalene-2,7-disulphonate]",about 2.5 g/L
–,"O=C([O-])c1c(Cl)c(Cl)c(Cl)c(Cl)c1-c1c2c(Br)cc(=O)c(Br)c-2oc2c(Br)c(O)cc(Br)c12.O=C([O-])c1c(Cl)c(Cl)c(Cl)c(Cl)c1-c1c2c(Br)cc(=O)c(Br)c-2oc2c(Br)c(O)cc(Br)c12.[Na+].[Na+] [Acid Red 92, disodium salt of 3,4,5,6-tetrachloro-2-(1,4,5,8-tetrabromo-6-hydroxy-3-oxoxanthen-9-yl)benzoic acid]",greater than 10 g/L
highly soluble in water,"O=C([O-])C1=NN(c2ccc(S(=O)(=O)[O-])cc2)C(=O)C1N=Nc1ccc(S(=O)(=O)[O-])cc1.[Na+].[Na+].[Na+] (centres unmarked) [Acid Yellow 23, trisodium salt of 4,5-dihydro-5-oxo-1-(4-sulfophenyl)-4-((4-sulfophenyl)azo)-1H-pyrazole-3-carboxylic acid]",–
